# Results published in patent publication US20130317092A1 (priority 2007, published 2013).
# How the values were obtained:
# [1] = system: TNFα; assay: TNFα production by peritoneal macrophages from FVB/N and TgR mice; type: cell-based, mouse
# [2] = system: IL-12; assay: IL-12 production by peritoneal macrophages from FVB/N and TgR mice; type: cell-based, mouse
# [3] = system: U937 cells; assay: Nitric oxide production (Griess) in U937 cells; type: cell-based, human; details: 24 h, 1 μg/ml LPS, 100 μM ACh
# [4] = system: IL-6; assay: IL-6 production by peritoneal macrophages from FVB/N and TgR mice; type: cell-based, mouse; details: 100 μM ACh
# [5] = system: IL-1β, TNFα; assay: IL-1β, TNFα production (ELISA) by bone marrow dendritic cells from FVB/N and TgR mice; type: cell-based, mouse; details: TgR dendritic cells, LPS and ACh
# [6] = system: NFκB; assay: NFκB localisation by immunohistochemistry in mouse bone marrow macrophages; type: cell-based; details: LPS, LPS+ACh
# [7] = system: AChE-S mRNA; assay: AChE-S mRNA by QRT-PCR in transfected primary human macrophages; type: cell-based; details: primary human macrophages transfected with LNA-modified oligo
# Method: (§1) Primary human macrophages obtained from donors using methods which are well known in the art.
# (§2) anti132 is set forth in CG+ACC+ATG+GCT+GTA+GAC+TGT+TA (SEQ ID NO: 109), anti182 is set forth in 5′T+AgT+Tgg+CAA+gTC+TAg+AAC+CA3′(SEQ ID NO: 110), whereby LNA modification is marked as + before the modified nucleotide.
# (§3) RT was performed using SuperScript III kit reagents (Invitrogen) as per kit instructions, and ABI-7900HT (Applied Biosystems) equipped with dedicated software (ver. 2) was used to amplify the resulting cDNA template (SYBR Green I RNA amplification kit, Roche). Triplicate values of each treatment were normalized to β-actin mRNA.
# [8] = system: Inducible Nitric Oxide Synthetase (iNOS); assay: iNOS by QRT-PCR in transfected primary human macrophages; type: cell-based; details: primary human macrophages transfected with LNA-modified oligo
# Method: as §1, §3
# [9] = system: RAW 264.7 cells; assay: NO production of LPS-challenged RAW 264.7 cells transfected with miR mimics; type: cell-based, murine
# Method: Murine RAW 264.7 macrophage-derived cell line known to express TLR4 and respond to endotoxin by production of pro-inflammatory mediators such as Nitric Oxide (NO), prostaglandins, and cytokines as ILE IL6, and TNFalpha were used (described in the preceding examples e.g., Examples 7 and 8). Cells were grown in 5 ml flasks in a humidified atmosphere in Dulbecco's modified Eagle's medium (DMEM, Biological Industries) supplemented with 10% fetal calf serum (FCS) and 2 mM L-glutamine at 37° C., 5% CO2.
# Griess method was used to determine NO2 levels in medium in which macrophages had been cultured. 100 μl of each sample+100 μl of Griess reagent (1% sulfanilamide/0.1% naphthylethylenediamine dihydrochloride/2.5% H3PO4)—were incubated 10-20 min at room temperature. Read absorbance at 546 nm in micro-ELISA reader.
# miR 132 and 182* (SEQ ID NOs: 54 and 93, respectively) were LNA modified (products are designated with SEQ ID NOs. 107 and 108, respectively). A locked nucleic acid (LNA), often referred to as inaccessible RNA, is a modified RNA. Ribose moiety of LNA nucleotide is modified with an extra bridge connecting 2′ and 4′ carbons. The bridge “locks” the ribose in 3′-endo structural conformation, which is often found in A-form of DNA or RNA. LNA nucleotides can be mixed with DNA or RNA bases in the oligonucleotide whenever desired. The locked ribose conformation enhances base stacking and backbone pre-organization.
# electroporation and lipofection were used for cell transfection.
# Oligos containing LNA modifications on every third base (Table 4) were obtained from Sigma-Proligo. Transfection was performed with Lipofectamine 2000 (Invitrogen, Carlsbad, Calif.) using 3 μg of oligo per sample. Briefly, cells were brought to 80%-90% confluence at the time of transfection. For each transfection sample, 3 μg oligo were diluted in 1 ml of RPMI-1640 while the lipofectamine reagent was diluted in 1 ml of RPMI-1640. After 5 minutes the diluted oligo and lipofectamine were combined and incubated for 20 minutes. This was added to the cells within the 75 ml flask, containing 6 ml RPMI complete+GM-CSF ([…] final oligo concentration). […]
# To determine cell viability 40 μl of thiazolyl blue tetrazolium bromide (MTT) reagent (Sigma) at 5 mg/ml was added per sample well, incubated for 30 minutes at 37° C. Medium was removed, 400 μl of DMSO was added per well and absorbance read at 550 nm Griess method was used to determine NO2 levels in conditioned medium from macrophage cultures. […] Absorbance was read at 546 nm in a micro-ELISA reader. TNF-α, IL-6 levels were measured by Enzyme-Linked Immunosorbent Assay (ELISA) according to manufacturer's procedures (R&D Systems kits, MTA00, M6000B, respectively). All absorbance results were normalized using standard curves. […]
# [10] = system: AChE-R mRNA; assay: AChE-R mRNA by QRT-PCR in transfected primary human macrophages; type: cell-based; details: primary human macrophages transfected with LNA-modified oligo
# Method: as §1, §2, §3
# [11] = system: 3′UTR fragment of human AChE cDNA; assay: Dot blot hybridization of LNA-modified oligos with PCR-amplified AChE 3′UTR; type: binding; details: 5′-32P-labeled LNA-modified oligos
# Method: The common AChE 3′-UTR sequence was obtained from AY750146 (all mRNA sequence beginning from stop codon). 3′-UTR of AChE was amplified by RT-PCR using Promega reagents and total RNA isolated with QIAGEN RNeasy kit from post-mortem human brain, with primers including XhoI, NotI restriction sites in 5′ and 3′ primer, respectively. Primer sequences used were: (5′): […], (3′) (SEQ ID NO: 111): […] (SEQ ID NO: 112). Annealing temperature of 57° C. was used. PCR product was purified with QIAGEN QiaQuick kit, size of fragment verified in agarose gel, spotted on a dry HyBond nylon membrane in 2 ul drops, cross-linked to the membrane using 1200 mJ UV burst, and baked for 1 hr at 80° C. Membrane was blocked for at least 2 hours in solution containing 50% deionized formamide, 5×SSPE, 0.5% SDS, 5×Denhardt's Solution at 50° C.; and hybridized o/night in same conditions with 5′-32P-labeled probes mimicking miRs wholly or with mismatches as indicated, washed 4 times at 37° C. in 3×SSPE, 5% SDS, 10×Denhardt's solution; once at 42° C. in 1×SSPE, 1% SDS; exposed over up to 3 days to a PhosphorImager (Molecular Dynamics/GE Healthcare) plate, and signal quantified using FujiFilm's ImageGauge 4 software.
Compound,LPS-induced increase in TNFα on co-administration of ACh [1],IL-12 levels on co-administration of ACh with LPS ([2]; TgR macrophages),IL-12 levels on co-administration of ACh with LPS ([2]; wild-type macrophages),nitric oxide (NO) levels [3],LPS-induced IL6 increase on co-administration of ACh [4],up-regulation of inflammatory cytokines with ACh [5],relocation of NFκB from the cytoplasm to the nucleus [6],AChE-S mRNA levels [7],iNOS expression [8],activation of macrophage cell lines by LPS (NO production) after transfection ([9]; LPS-exposed RAW-264.7 cells transfected with oligo (Example 13)),"endotoxin response (NO production) after transfection ([9]; RAW 264.7 cells transfected or electroporated, then endotoxin challenge (Example 11))",AChE-R mRNA levels [10],binding to PCR-amplified AChE 3′UTR (dot blot signal) [11]
"CC(=O)OCC[N+](C)(C)C.[Cl-] [ACh, Acetylcholine chloride]",significantly attenuated the LPS-induced increase in TNFα,elevated in TgR macrophages,significantly lowered,"reduced NO levels, and blocked the LPS-induced increases",prevented this increase,not ACh-preventable,significantly attenuated this effect,,,,,,
"anti-132: LNA-modified reverse-complementary oligo CG+ACC+ATG+GCT+GTA+GAC+TGT+TA (CGACCATGGCTGTAGACTGTTA; LNA at 3, 6, 9, 12, 15, 18, 21, other sugars and backbone not given here)",,,,,,,,"increase in mRNA levels, albeit of the AChE-S variant alone",up-regulation of Inducible Nitric Oxide Synthetase (iNOS),,,,
"miR-132 mimic: LNA-modified oligo mimicking miR-132: TA+ACA+GTC+TAC+AGC+CAT+GGT+CG (TAACAGTCTACAGCCATGGTCG; LNA at 3, 6, 9, 12, 15, 18, 21, other sugars and backbone not given here)",,,,,,,,dramatic decline,,significantly attenuate the activation of macrophage cell lines by LPS,significantly attenuate endotoxin response,dramatic decline,significant binding to 20 ng doses of PCR product
